These are literature values, as cited in patent US20190124976A1, “NICOTINE DOSAGE REGIMEN” (priority 2014, published 2019).

The conditions of this data set: reported to be as low as.

Each structure is given as a SMILES string.

Take `CN1CCCC1c1cccnc1` (stereo not shown) [nicotine]: the minimal lethal dose was 30 mg.
